Our source for the Kb values is US8507533B2, “Glucagon receptor modulators” (Pfizer Inc., priority 2011, dated 2013).

Bounds are passed on as bounds.

For this assay, the target named is human glucagon receptor (Homo sapiens (Human), UniProt P47871). Nature of the assay: Glucagon cAMP Assay (Cisbio cAMP detection). To be noted: CHOK1 cells stably transfected with the human glucagon receptor; block of glucagon induced cAMP production; Kb by modified Cheng-Prusoff equation. It is filed as cell-based. The protocol:
The Cisbio cAMP detection assay is used to determine the ability of punitive glucagon antagonist to block glucagon induced cAMP production. Potential glucagon antagonists are re-suspended and diluted in 100% DMSO. Prior to use in the Glucagon cAMP assay 100×DMSO compound stocks are diluted 20× with DMEM-F12 media (Invitrogen) containing either 0.1% or 4% BSA. […] 2 μls of 5% DMSO or known glucagon antagonist are added to each plate to define the assay window. CHOK1 cells stably transfected with the human glucagon receptor are removed from culture flasks with cell dissociation buffer. Cell pellets are re-suspended, at a concentration of 8.3e^5 cells/ml in DMEM-F12 with or without 4% BSA and 200 uM IBMX. 6 μls of cell suspensions are added to the assay plates. Plates are incubated for 20 min at room temperature prior to the addition of a 100 μM challenge dose of glucagon. On a separate plate glucagon dose response curves are run to determine the EC50 of glucagon. After a 30 min room temperature incubation the reaction is terminated by the addition of lysis buffer containing the cAMP detection reagents. Plates are incubated for an additional 60 min at room temperature prior to being read on the Perkin Elmer fluorescent plate reader. Raw is converted to nM of cAMP produced based on a cAMP standard curve. Converted data is then analyzed using the Pfizer data analysis program. IC50 values are determined from the generated sigmoidal dose response curves. Kb values are calculated using a modified Cheng-Prusoff equation. N is the number of times the compound was assayed.
A general note: cAMP levels reflect the balance of adenylyl cyclase and phosphodiesterase activity.

Chain of human glucagon receptor (P47871 26-477): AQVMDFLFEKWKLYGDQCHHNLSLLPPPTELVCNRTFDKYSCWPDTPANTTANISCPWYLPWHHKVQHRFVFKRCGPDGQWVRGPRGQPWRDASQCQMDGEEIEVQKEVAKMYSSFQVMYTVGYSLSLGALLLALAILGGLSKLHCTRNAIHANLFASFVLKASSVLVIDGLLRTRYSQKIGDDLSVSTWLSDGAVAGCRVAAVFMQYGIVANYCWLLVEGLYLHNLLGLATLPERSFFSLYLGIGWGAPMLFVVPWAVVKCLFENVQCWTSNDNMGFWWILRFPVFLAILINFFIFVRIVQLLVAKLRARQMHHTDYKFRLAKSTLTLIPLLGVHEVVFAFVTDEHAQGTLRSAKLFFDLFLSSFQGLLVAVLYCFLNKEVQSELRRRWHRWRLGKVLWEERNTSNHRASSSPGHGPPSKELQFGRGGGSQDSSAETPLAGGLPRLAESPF

The compound `CCCC(Oc1ccc(-c2cc[nH]n2)cc1)c1ccc(C(=O)NCCC(=O)O)cc1` (racemic) [Example 51, (+/−)-3-(4-(1-(4-(1H-pyrazol-3-yl)phenoxy)butyl)benzamido)propanoic acid] yielded a Kb of 1810 nM.
`CCCC(Oc1ccc(-c2c(C)noc2C)cc1)c1ccc(C(=O)NCCC(=O)O)cc1` (racemic) [Example 52, (+/−)-3-(4-(1-(4-(3,5-dimethylisoxazol-4-yl)phenoxy)butyl)benzamido)propanoic acid] came in with a Kb of 2410 nM.
Under `CCCC(Oc1ccc(-c2cnn(C)c2)cc1)c1ccc(C(=O)NCCC(=O)O)cc1` (racemic) [Example 54, (+/−)-3-(4-(1-(4-(1-methyl-1H-pyrazol-4-yl)phenoxy)butyl)benzamido)propanoic acid] stands 3530 nM; under `CCCC(Oc1ccc(-c2cnn(C)c2C)cc1)c1ccc(C(=O)NCCC(=O)O)cc1` (racemic) [Example 55, (+/−)-3-(4-(1-(4-(1,5-dimethyl-1H-pyrazol-4-yl)phenoxy)butyl)benzamido)propanoic acid], 3720 nM.
The compound `CCCC(Oc1ccc(-c2cn[nH]c2)cc1)c1ccc(C(=O)NCCC(=O)O)cc1` (racemic) [Example 56, (+/−)-3-(4-(1-(4-(1H-pyrazol-4-yl)phenoxy)butyl)benzamido)propanoic acid] gave a Kb of 4370 nM.
Under `CCCC(Oc1ccc(-c2ccnn2C)cc1)c1ccc(C(=O)NCCC(=O)O)cc1` (racemic) [Example 57, (+/−)-3-(4-(1-(4-(1-methyl-1H-pyrazol-5-yl)phenoxy)butyl)benzamido)propanoic acid] stands 6100 nM.
Then `CCCC(Oc1ccc(-c2c(C)nn(C)c2C)cc1)c1ccc(C(=O)NCCC(=O)O)cc1` (racemic) [Example 58, (+/−)-3-(4-(1-(4-(1,3,5-trimethyl-1H-pyrazol-4-yl)phenoxy)butyl)benzamido)propanoic acid], with 7300 nM; and `CCCC(Nc1ccc(-n2cc(-c3ccccc3)cn2)nc1)c1ccc(C(=O)NCCC(=O)O)cc1` (racemic) [Example 62, (+/−)-3-(4-(1-(6-(4-phenyl-1H-pyrazol-1-yl)pyridine-3-ylamino)butyl)benzamido)propanoic acid], with 32.2 nM; and `CCCC(Nc1ccc(-n2cc(F)cn2)cc1)c1ccc(C(=O)NCCC(=O)O)cc1` (racemic) [Example 63, (+/−)-3-(4-(1-(4-(4-fluoro-1H-pyrazol-1-yl)phenylamino)butyl)benzamido)propanoic acid], with 613 nM.
In the case of `CC(C)CC(Nc1ccc(C(=O)NCCC(=O)O)cn1)c1ccc(-n2cc(C(F)(F)F)cn2)cc1` (racemic) [Example 64, (+/−)-3-(6-(3-methyl-1-(4-(4-(trifluoromethyl)-1H-pyrazol-1-yl)phenyl)butylamino)nicotinamido)propanoic acid], the Kb stood at 494 nM.
Take `O=C(O)CCNC(=O)c1ccc(C(CC2CC2)Oc2ccc(-n3cc(C(F)(F)F)cn3)cc2)cc1` (racemic) [Example 65, (+/−)-3-(4-(2-cyclopropyl-1-(4-(4-(trifluoromethyl)-1H-pyrazol-1-yl)phenoxy)ethyl)benzamido)propanoic acid]: the Kb was 2880 nM.
Take `CCCC(Oc1ccc(-n2ccc(C(F)(F)F)n2)cc1)c1ccc(C(=O)NCCC(=O)O)cc1` (racemic) [Example 70, (+/−)-3-(4-(1-(4-(3-(trifluoromethyl)-1H-pyrazol-1-yl)phenoxy)butyl)benzamido)propanoic acid]: the Kb came to 1910 nM.
Turning to `CC(C)(C)CC(Oc1ccc(-n2cc(C(F)(F)F)cn2)cc1)c1ccc(C(=O)NCCC(=O)O)cc1` (racemic) [Example 71, (+/−)-3-(4-(3,3-dimethyl-1-(4-(4-(trifluoromethyl)-1H-pyrazol-1-yl)phenoxy)butyl)benzamido)propanoic acid], the Kb came to 2120 nM.
The compound `CCCC(Oc1ccc(-n2cc(C)c(C(F)(F)F)n2)cc1)c1ccc(C(=O)NCCC(=O)O)cc1` (racemic) [Example 72, (+/−)-3-(4-(1-(4-(4-methyl-3-(trifluoromethyl)-1H-pyrazol-1-yl)phenoxy)butyl)benzamido)propanoic acid] yielded a Kb of 2300 nM.
Then `CCCC(Oc1ccc(-n2cnc(C(F)(F)F)n2)cc1)c1ccc(C(=O)NCCC(=O)O)cc1` (racemic) [Example 73, (+/−)-3-(4-(1-(4-(3-(trifluoromethyl)-1H-1,2,4-triazol-1-yl)phenoxy)butyl)benzamido)propanoic acid], with 2640 nM.
`CCCC(Oc1ccc(-n2cc(C(F)(F)F)nc2C)cc1)c1ccc(C(=O)NCCC(=O)O)cc1` (racemic) [Example 75, (+/−)-3-(4-(1-(4-(2-methyl-4-(trifluoromethyl)-1H-imidazol-1-yl)phenoxy)butyl)benzamido)propanoic acid] showed a Kb of 7710 nM.
The compound `CCCC(Oc1ccc(-n2cc(C(F)(F)F)cn2)cn1)c1ccc(C(=O)NCCC(=O)O)cc1` (racemic) [Example 85, (+/−)-3-(4-(1-(5-(4-(trifluoromethyl)-1H-pyrazol-1-yl)pyridine-2-yloxy)butyl)benzamido)propanoic acid] showed a Kb of 4140 nM.
Under `CCCC(Oc1ccc(-n2cnc(C(F)(F)F)c2)nc1)c1ccc(C(=O)NCCC(=O)O)cc1` (racemic) [Example 87, (+/−)-3-(4-(1-(6-(4-(trifluoromethyl)-1H-imidazol-1-yl)pyridine-3-yloxy)butyl)benzamido)propanoic acid] stands 9390 nM.
Then `CCCC(Oc1ccc(-n2cc3c(n2)CCC3)cc1)c1ccc(C(=O)NCCC(=O)O)cc1` (racemic) [Example 90, (+/−)-3-(4-(1-(4-(5,6-dihydrocyclopenta[c]pyrazol-2(4H)-yl)phenoxy)butyl)benzamido)propanoic acid], with over 2500 nM.
Then `CCCC(Nc1ccc(-n2cc(C)nn2)cc1)c1ccc(C(=O)NCCC(=O)O)cc1` (racemic) [Example 92, (+/−)-3-(4-(1-(4-(4-methyl-1H-1,2,3-triazol-1-yl)phenylamino)butyl)benzamido)propanoic acid], with 5600 nM.
`CC(C)CC(Nc1ncc(C(=O)NCCC(=O)O)cn1)c1ccc(-n2cc(C(F)(F)F)cn2)cc1` (racemic) [Example 93, (+/−)-3-(2-(3-methyl-1-(4-(4-(trifluoromethyl)-1H-pyrazol-1-yl)phenyl)butylamino)pyrimidine-5-carboxamido)propanoic acid] displayed a Kb of 3840 nM.
Regarding `O=C(O)CCNC(=O)c1ccc(C(Nc2ccc(-n3cc(C(F)(F)F)cn3)nc2)C2CCCC2)cc1` (racemic) [Example 94, (+/−)-3-(4-(cyclopentyl(6-(4-(trifluoromethyl)-1H-pyrazol-1-yl)pyridine-3-ylamino)methyl)benzamido)propanoic acid], the Kb turned out to be 57.5 nM.
As for `O=C(O)CCNC(=O)c1ccc(NC(c2ccc(-n3cc(C(F)(F)F)cn3)cc2)C2CCCCC2)nc1` (racemic) [Example 99], the Kb was determined as 376 nM.
In turn, `CC(C)(C)CC(Nc1ccc(-n2cnc(C(F)(F)F)c2)nc1)c1ccc(C(=O)NCCC(=O)O)cc1` (racemic) [Example 100, (+/−)-3-(4-(3,3-dimethyl-1-(6-(4-(trifluoromethyl)-1H-imidazol-1-yl)pyridine-3-ylamino)butyl)benzamido)propanoic acid] returned a Kb of 226 nM.
